Measured values as given in patent publication US6992079B2, “Substituted 11-phenyl-dibenzazepine compounds useful for the treatment or prevention of diseases characterized by abnormal cell proliferation” (President Fellows of Harvard College, priority 1997, dated 2006).
Like-named read-outs stand apart in the source and are kept apart here.

Columns and labels:
A549 = test: SRB antiproliferative assay; format: cell-based; details: Homo sapiens, A549, A549 (Lung), 5% FCS/5 day incubation
From the text: (§1) The cells were passaged using Trypsin (Gibco).

HEPG2 = test: SRB antiproliferative assay; format: cell-based; details: Homo sapiens, HepG2, HEPG2 (Hepatocel), 5% FCS/5 day incubation
From the text: as §1

HT29 [1] = test: SRB antiproliferative assay; format: cell-based; details: Homo sapiens, HT-29, HT29 (Colon), 5% FCS/5 day incubation
From the text: as §1

HeLa = test: SRB antiproliferative assay; format: cell-based; details: Homo sapiens, HeLa (Cervical), 5% FCS/5 day incubation
From the text: as §1

MCF7 = test: SRB antiproliferative assay; format: cell-based; details: Homo sapiens, MCF7, MCF7 (Breast), 5% FCS/5 day incubation
From the text: as §1

U118MG = test: SRB antiproliferative assay; format: cell-based; details: Homo sapiens, U-118-MG, U118MG (CNS), 5% FCS/5 day incubation
From the text: as §1

NCI-H23 = format: cell-based
COLO 205 = test: In-Vitro Testing SRB panel: Colon Cancer; format: cell-based
HCT-116 = test: In-Vitro Testing SRB panel: Colon Cancer; format: cell-based
HCT-15 = test: In-Vitro Testing SRB panel: Colon Cancer; format: cell-based
HT29 [2] = test: In-Vitro Testing SRB panel: Colon Cancer; format: cell-based
SF-539 = test: In-Vitro Testing SRB panel: CNS Cancer; format: cell-based
SNB-75 = test: In-Vitro Testing SRB panel: CNS Cancer; format: cell-based
U251 = test: In-Vitro Testing SRB panel: CNS Cancer; format: cell-based
CARI-1 = test: In-Vitro Testing SRB panel: Renal Cancer; format: cell-based
RXF 393 = test: In-Vitro Testing SRB panel: Renal Cancer; format: cell-based
SN12C = test: In-Vitro Testing SRB panel: Renal Cancer; format: cell-based
PC-3 = test: In-Vitro Testing SRB panel: Prostate Cancer; format: cell-based
OVCAR-3 = test: In-Vitro Testing SRB panel: Ovarian Cancer

COc1ccc2c(c1)CN(C(=O)c1ccc([N+](=O)[O-])cc1)c1ccc(Cl)cc1C2c1ccccc1Cl (centres unmarked) [Compound 30]
IC50 (A549): 1.5 µM
IC50 (HEPG2): 0.9 µM
IC50 (HT29 [1]): 0.6 µM
IC50 (HeLa): 0.5 µM
IC50 (MCF7): 1.3 µM
IC50 (U118MG): 0.8 µM
GI50 (NCI-H23; Homo sapiens, NCI-H23): > 100 µM
CC50 (NCI-H23; Homo sapiens, NCI-H23, read-out: LC50 (the source's name)): > 100 µM
TGI (NCI-H23; NCI-H23): >1.00E−04 Molar
Percent Growth (NCI-H23; NCI-H23, Log10 concentration −4.0 Molar): 55%
Percent Growth (NCI-H23; NCI-H23, Log10 concentration −5.0 Molar): 60%
Percent Growth (NCI-H23; NCI-H23, Log10 concentration −6.0 Molar): 84%
Percent Growth (NCI-H23; NCI-H23, Log10 concentration −7.0 Molar): 97%
Percent Growth (NCI-H23; NCI-H23, Log10 concentration −8.0 Molar): 93%
TGI (COLO 205; COLO 205): >1.00E−04 Molar
Percent Growth (COLO 205; COLO 205, Log10 concentration −4.0 Molar): 43%
Percent Growth (COLO 205; COLO 205, Log10 concentration −5.0 Molar): 46%
Percent Growth (COLO 205; COLO 205, Log10 concentration −6.0 Molar): 68%
Percent Growth (COLO 205; COLO 205, Log10 concentration −7.0 Molar): 87%
Percent Growth (COLO 205; COLO 205, Log10 concentration −8.0 Molar): 93%
GI50 (COLO 205; Homo sapiens, COLO 205): 6.64 µM
CC50 (COLO 205; Homo sapiens, COLO 205, read-out: LC50 (the source's name)): > 100 µM
TGI (HCT-116; HCT-116): 1.00E−04 Molar
Percent Growth (HCT-116; HCT-116, Log10 concentration −4.0 Molar): 22%
Percent Growth (HCT-116; HCT-116, Log10 concentration −5.0 Molar): 17%
Percent Growth (HCT-116; HCT-116, Log10 concentration −6.0 Molar): 63%
Percent Growth (HCT-116; HCT-116, Log10 concentration −7.0 Molar): 90%
Percent Growth (HCT-116; HCT-116, Log10 concentration −8.0 Molar): 97%
GI50 (HCT-116; Homo sapiens, HCT-116): 1.91 µM
CC50 (HCT-116; Homo sapiens, HCT-116, read-out: LC50 (the source's name)): > 100 µM
TGI (HCT-15; HCT-15): >1.00E−04 Molar
Percent Growth (HCT-15; HCT-15, Log10 concentration −4.0 Molar): 39%
Percent Growth (HCT-15; HCT-15, Log10 concentration −5.0 Molar): 40%
Percent Growth (HCT-15; HCT-15, Log10 concentration −6.0 Molar): 77%
Percent Growth (HCT-15; HCT-15, Log10 concentration −7.0 Molar): 98%
Percent Growth (HCT-15; HCT-15, Log10 concentration −8.0 Molar): 109%
GI50 (HCT-15; Homo sapiens, HCT-15): 5.28 µM
CC50 (HCT-15; Homo sapiens, HCT-15, read-out: LC50 (the source's name)): > 100 µM
TGI (HT29 [2]; HT29): >1.00E−04 Molar
Percent Growth (HT29 [2]; HT29, Log10 concentration −4.0 Molar): 20%
Percent Growth (HT29 [2]; HT29, Log10 concentration −5.0 Molar): 22%
Percent Growth (HT29 [2]; HT29, Log10 concentration −6.0 Molar): 70%
Percent Growth (HT29 [2]; HT29, Log10 concentration −7.0 Molar): 93%
Percent Growth (HT29 [2]; HT29, Log10 concentration −8.0 Molar): 91%
GI50 (HT29 [2]; Homo sapiens, HT-29): 2.63 µM
CC50 (HT29 [2]; Homo sapiens, HT-29, HT29, read-out: LC50 (the source's name)): > 100 µM
GI50 (SF-539; Homo sapiens, SF-539): 3.87 µM
CC50 (SF-539; Homo sapiens, SF-539, read-out: LC50 (the source's name)): > 100 µM
TGI (SF-539; SF-539): >1.00E−04 Molar
Percent Growth (SF-539; SF-539, Log10 concentration −4.0 Molar): 20%
Percent Growth (SF-539; SF-539, Log10 concentration −5.0 Molar): 33%
Percent Growth (SF-539; SF-539, Log10 concentration −6.0 Molar): 75%
Percent Growth (SF-539; SF-539, Log10 concentration −7.0 Molar): 92%
Percent Growth (SF-539; SF-539, Log10 concentration −8.0 Molar): 93%
GI50 (SNB-75; Homo sapiens, SNB-75): 4.52 µM
CC50 (SNB-75; Homo sapiens, SNB-75, read-out: LC50 (the source's name)): > 100 µM
TGI (SNB-75; SNB-75): >1.00E−04 Molar
Percent Growth (SNB-75; SNB-75, Log10 concentration −4.0 Molar): 25%
Percent Growth (SNB-75; SNB-75, Log10 concentration −5.0 Molar): 32%
Percent Growth (SNB-75; SNB-75, Log10 concentration −6.0 Molar): 83%
Percent Growth (SNB-75; SNB-75, Log10 concentration −7.0 Molar): 103%
Percent Growth (SNB-75; SNB-75, Log10 concentration −8.0 Molar): 99%
GI50 (U251; Homo sapiens, U-251): 5.1 µM
CC50 (U251; Homo sapiens, U-251, U251, read-out: LC50 (the source's name)): > 100 µM
TGI (U251; U251): >1.00E−04 Molar
Percent Growth (U251; U251, Log10 concentration −4.0 Molar): 37%
Percent Growth (U251; U251, Log10 concentration −5.0 Molar): 37%
Percent Growth (U251; U251, Log10 concentration −6.0 Molar): 81%
Percent Growth (U251; U251, Log10 concentration −7.0 Molar): 103%
Percent Growth (U251; U251, Log10 concentration −8.0 Molar): 94%
TGI (CARI-1; CARI-1): >1.00E−04 Molar
Percent Growth (CARI-1; CARI-1, Log10 concentration −4.0 Molar): 59%
Percent Growth (CARI-1; CARI-1, Log10 concentration −5.0 Molar): 68%
Percent Growth (CARI-1; CARI-1, Log10 concentration −6.0 Molar): 71%
Percent Growth (CARI-1; CARI-1, Log10 concentration −7.0 Molar): 108%
Percent Growth (CARI-1; CARI-1, Log10 concentration −8.0 Molar): 141%
GI50 (CARI-1; Homo sapiens): > 100 µM
CC50 (CARI-1; Homo sapiens, CARI-1, read-out: LC50 (the source's name)): > 100 µM
GI50 (RXF 393; Homo sapiens, RXF 393): 3.4 µM
CC50 (RXF 393; Homo sapiens, RXF 393, read-out: LC50 (the source's name)): > 100 µM
TGI (RXF 393; RXF 393): >1.00E−04 Molar
Percent Growth (RXF 393; RXF 393, Log10 concentration −4.0 Molar): 20%
Percent Growth (RXF 393; RXF 393, Log10 concentration −5.0 Molar): 23%
Percent Growth (RXF 393; RXF 393, Log10 concentration −6.0 Molar): 81%
Percent Growth (RXF 393; RXF 393, Log10 concentration −7.0 Molar): 97%
Percent Growth (RXF 393; RXF 393, Log10 concentration −8.0 Molar): 90%
TGI (SN12C): >1.00E−04 Molar
GI50 (SN12C; Homo sapiens): 6.32 µM
CC50 (SN12C; Homo sapiens, read-out: LC50 (the source's name)): > 100 µM
Percent Growth (SN12C; Log10 concentration −4.0 Molar): 45%
Percent Growth (SN12C; Log10 concentration −5.0 Molar): 41%
Percent Growth (SN12C; Log10 concentration −6.0 Molar): 87%
Percent Growth (SN12C; Log10 concentration −7.0 Molar): 90%
Percent Growth (SN12C; Log10 concentration −8.0 Molar): 100%
GI50 (PC-3; Homo sapiens, PC-3): 1.33 µM
CC50 (PC-3; Homo sapiens, PC-3, read-out: LC50 (the source's name)): > 100 µM
TGI (PC-3; PC-3): >1.00E−04 Molar
Percent Growth (PC-3; PC-3, Log10 concentration −4.0 Molar): 30%
Percent Growth (PC-3; PC-3, Log10 concentration −5.0 Molar): 29%
Percent Growth (PC-3; PC-3, Log10 concentration −6.0 Molar): 53%
Percent Growth (PC-3; PC-3, Log10 concentration −7.0 Molar): 103%
Percent Growth (PC-3; PC-3, Log10 concentration −8.0 Molar): 100%
GI50 (OVCAR-3; Homo sapiens, OVCAR-3): 10.2 µM
CC50 (OVCAR-3; Homo sapiens, OVCAR-3, read-out: LC50): > 100 µM
TGI (OVCAR-3; OVCAR-3): >1.00E−04 Molar
Percent Growth (OVCAR-3; OVCAR-3, Log10 concentration −4.0 Molar): 43%
Percent Growth (OVCAR-3; OVCAR-3, Log10 concentration −5.0 Molar): 50%
Percent Growth (OVCAR-3; OVCAR-3, Log10 concentration −6.0 Molar): 89%
Percent Growth (OVCAR-3; OVCAR-3, Log10 concentration −7.0 Molar): 105%
Percent Growth (OVCAR-3; OVCAR-3, Log10 concentration −8.0 Molar): 95%
